Consider one molecule from patent publication US20070134319A1, “Pharmaceutical formulations of bisphosphonates” (priority 2003, published 2007).

Source text: The solubility of zoledronic acid in [sequence] 44/14 and [sequence]

`O=P(O)(O)C(O)(Cn1ccnc1)P(=O)(O)O` [zoledronic acid, 1-hydroxy-2-(imidazol-1-yl)ethane-1,1-diphosphonic acid]: the “Zoledronic acid solubility in all the excipients (liquid lipidic media)” value (assessed visually) is reported as < 0.2 mg/g of excipient. For the same molecule, the “Solubility of zoledronic acid in VITAMIN E-TPGS” value (at 40° C.) is “less than 0.22 mg/g”. The “Solubility of zoledronic acid in GELUCIRE 50/13” value (at 60° C.) is “less than 1 mg/g”. The “Solubility in pH 4.5 acetate buffer” value (pH 4.5) was “readily soluble”. Under “pH 4.5 acetate buffer solution, tap water (final pH 3.8) or citric acid (final pH~2.2) flush”, the “Precipitation upon addition of flush” value is “does not precipitate out”.
